The record followed here is US10975056B2 (GlaxoSmithKline Intellectual Property Development Limited, priority 2016, dated 2021).

One assay addresses DNMT1 (Homo sapiens, UniProt P26358). The experiment in a line: DNMT1 biochemical activity, breaklight assay and/or SPA assay.
The test system of assay [1] is erythroid progenitor cells (EPCs). The experiment in a line: Fetal hemoglobin (HbF) ELISA in day 7 erythroid progenitor cells. The note with it: Homo sapiens, Erythroid progenitor cell, HbF ELISA, day 7 EPCs, 5 days; read-out: EPC ELISA (pEC50 category) (converted). It is filed as cell-based, human. Put shortly: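 HbF induction was read by anti-HbF sandwich ELISA (HRP/TMB, OD450) on lysates and normalized to vehicle-treated cells. Cells were day 7 erythroid progenitors derived from human bone marrow CD34+ cells, seeded at 1,000/well with 3 U/mL rhEPO. Compound was given for 5 days at 37 °C at final concentrations […].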
(An ELISA detects its analyte on a solid surface through an enzyme-linked reagent.)

Setting [2] is: binned activity in either the breaklight or the SPA assay.
The mark [3] stands for this setting: breaklight assay and/or SPA assay, repeated experimental runs, read-out: average pIC50 against DNMT1 (converted).

Where “and” joins values, the source holds several entries; their conditions need not be identical. Equal entries are not always repeated. Structures can show the parent of a compound that is named as a salt. Where two headings read alike, the source gives them in different places. Some results are limits rather than exact numbers.

Sequence of DNMT1 (P26358 whole entry, looked up): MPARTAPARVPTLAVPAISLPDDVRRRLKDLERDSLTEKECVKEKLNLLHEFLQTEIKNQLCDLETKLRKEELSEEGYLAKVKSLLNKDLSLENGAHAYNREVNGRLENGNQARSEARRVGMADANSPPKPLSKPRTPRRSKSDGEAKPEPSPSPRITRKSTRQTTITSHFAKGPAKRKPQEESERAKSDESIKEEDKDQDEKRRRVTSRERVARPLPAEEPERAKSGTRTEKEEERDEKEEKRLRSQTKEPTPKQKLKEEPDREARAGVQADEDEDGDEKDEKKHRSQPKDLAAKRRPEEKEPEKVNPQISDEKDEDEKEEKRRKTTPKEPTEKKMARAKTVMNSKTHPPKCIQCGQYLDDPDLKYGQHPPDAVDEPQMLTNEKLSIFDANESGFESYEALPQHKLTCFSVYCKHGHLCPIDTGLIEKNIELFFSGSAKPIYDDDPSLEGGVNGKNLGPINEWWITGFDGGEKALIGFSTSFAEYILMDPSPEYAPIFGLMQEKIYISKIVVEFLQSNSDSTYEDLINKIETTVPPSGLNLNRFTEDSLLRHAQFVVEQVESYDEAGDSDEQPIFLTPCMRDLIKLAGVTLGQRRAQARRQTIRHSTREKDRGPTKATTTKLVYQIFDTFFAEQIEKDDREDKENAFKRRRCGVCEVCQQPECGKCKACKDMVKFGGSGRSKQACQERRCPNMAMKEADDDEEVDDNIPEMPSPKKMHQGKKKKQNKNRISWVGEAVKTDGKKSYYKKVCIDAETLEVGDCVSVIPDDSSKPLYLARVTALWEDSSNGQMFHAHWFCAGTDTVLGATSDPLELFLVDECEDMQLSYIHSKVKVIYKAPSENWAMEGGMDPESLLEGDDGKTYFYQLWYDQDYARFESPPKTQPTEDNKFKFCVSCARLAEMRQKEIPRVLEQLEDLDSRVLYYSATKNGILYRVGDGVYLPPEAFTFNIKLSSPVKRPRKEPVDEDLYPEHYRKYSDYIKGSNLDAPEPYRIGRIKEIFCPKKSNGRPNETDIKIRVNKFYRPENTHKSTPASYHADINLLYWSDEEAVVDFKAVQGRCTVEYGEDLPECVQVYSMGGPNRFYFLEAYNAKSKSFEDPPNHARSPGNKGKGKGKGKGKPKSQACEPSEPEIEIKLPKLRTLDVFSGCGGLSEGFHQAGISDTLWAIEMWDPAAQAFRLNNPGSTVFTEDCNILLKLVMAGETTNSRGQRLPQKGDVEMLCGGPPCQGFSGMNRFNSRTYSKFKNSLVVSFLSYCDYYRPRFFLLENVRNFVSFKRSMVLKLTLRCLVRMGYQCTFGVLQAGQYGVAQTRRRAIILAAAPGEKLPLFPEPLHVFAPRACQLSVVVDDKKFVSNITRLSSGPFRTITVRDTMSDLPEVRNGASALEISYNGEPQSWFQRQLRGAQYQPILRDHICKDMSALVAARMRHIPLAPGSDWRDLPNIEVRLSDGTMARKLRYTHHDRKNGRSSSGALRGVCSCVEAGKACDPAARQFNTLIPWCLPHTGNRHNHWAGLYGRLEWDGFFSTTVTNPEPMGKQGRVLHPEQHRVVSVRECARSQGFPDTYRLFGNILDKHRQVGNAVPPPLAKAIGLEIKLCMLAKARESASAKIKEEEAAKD

With `CCc1c(C#N)c(SCc2ccc(OS(C)(=O)=O)cc2)nc(N2CCC(N)CC2)c1C#N` [Example 626, 4-(((6-(4-aminopiperidin-1-yl)-3,5-dicyano-4-ethylpyridin-2-yl)thio)methyl)phenyl methanesulfonate 2,2,2-trifluoroacetate], the “DNMT1 BioChemical (pIC50 category)” value at DNMT1 (setting [2]) is “D (Category D: ≥6.5)”. Moreover, the “average pIC50 against DNMT1” value at DNMT1 (breaklight assay and/or SPA assay, repeated experimental runs, methanesulfonate 2,2,2-trifluoroacetate) is over 6.5. Besides, the IC50 on DNMT1 (setting [3]) was 0.2 µM. Moreover, the EC50 in assay [1] is under 0.316 µM.
Turning to `CN(CC(=O)N1CC(O)C1)c1nc(SC(C(N)=O)c2ccccc2)c(C#N)c(C2CC2)c1C#N` (centres unmarked) [Example 392, 2-((3,5-Dicyano-4-cyclopropyl-6-((2-(3-hydroxyazetidin-1-yl)-2-oxoethyl) (methyl)amino)pyridin-2-yl)thio)-2-phenylacetamide], on DNMT1 (setting [2]), the “DNMT1 BioChemical (pIC50 category)” value was “D (Category D: ≥6.5)”. Besides, the EC50 in assay [1] was 0.316 to 1 µM.
In the case of `CCc1c(C#N)c(SCc2ccc(CNC(=O)CN)cc2)nc(N2CC[C@@H](N)[C@@H](F)C2)c1C#N` (relative stereo) [Example 546, rel-2-amino-N-(4-(((6-(cis-4-amino-3-fluoropiperidin-1-yl)-3,5-dicyano-4-ethylpyridin-2-yl)thio)methyl)benzyl)acetamide], the IC50 on DNMT1 (binned activity in either the breaklight or the SPA assay, read-out: DNMT1 BioChemical (pIC50 category) (converted)) was 0.316 to 1 µM; at DNMT1 (setting [3]) it was 0.316 to 1 µM and 0.398 µM. Further, the EC50 in assay [1] is under 0.316 µM.
With `CCc1c(C#N)c(SC(C(N)=O)c2ccccc2)nc(N2CCC[C@@H](CNC(=O)CN)C2)c1C#N` (stereo partly drawn) [Example 589, 2-amino-N-(((3S)-1-(6-((2-amino-2-oxo-1-phenylethyl)thio)-3,5-dicyano-4-ethylpyridin-2-yl)piperidin-3-yl)methyl)acetamide], the “DNMT1 BioChemical (pIC50 category)” value on DNMT1 (setting [2]) is reported as “D (Category D: ≥6.5)”. Besides, the EC50 in assay [1] was 0.316 to 1 µM.
For `CCc1c(C#N)c(SC(C(N)=O)c2ccccc2)nc(N2CCO[C@H](CN)C2)c1C#N` (stereo partly drawn) [Example 564, 2-((6-((R)-2-(aminomethyl)morpholino)-3,5-dicyano-4-ethylpyridin-2-yl)thio)-2-phenylacetamide], the “DNMT1 BioChemical (pIC50 category)” value at DNMT1 (setting [2]) was “D (Category D: ≥6.5)”. Besides, the EC50 in assay [1] was under 0.316 µM.
The like results for `CCc1c(C#N)c(SC(C(N)=O)c2ccccc2)nc(N(C)Cc2n[nH]c(=O)[nH]2)c1C#N` (centres unmarked) [Example 340, 2-((3,5-Dicyano-4-ethyl-6-(methyl((5-oxo-4,5-dihydro-1H-1,2,4-triazol-3-yl)methyl)amino)pyridin-2-yl)thio)-2-phenylacetamide] were, in that order, “D (Category D: ≥6.5)” and 1 to 31.6 µM.
On the same counts, the results for `CCc1c(C#N)c(SCc2ccc(S(N)(=O)=O)cc2)nc(N2CCC(NC(=O)CN)CC2)c1C#N` [Example 339, 2-Amino-N-(1-(3,5-dicyano-4-ethyl-6-((4-sulfamoylbenzyl)thio)pyridin-2-yl)piperidin-4-yl)acetamide hydrochloride] are “D (Category D: ≥6.5)” and 1 to 31.6 µM.
`CCc1c(C#N)c(SC(C(N)=O)c2ccccc2)nc(N2CCC(CN(C)C)C2)c1C#N` (centres unmarked) [Example 512, 2-((3,5-dicyano-6-(3-((dimethylamino)methyl)pyrrolidin-1-yl)-4-ethylpyridin-2-yl)thio)-2-phenylacetamide]: the “DNMT1 BioChemical (pIC50 category)” value on DNMT1 (setting [2]) was “D (Category D: ≥6.5)”. Moreover, the EC50 in assay [1] was under 0.316 µM.
On to `CCc1c(C#N)c(SCc2ccc(N(C)S(C)(=O)=O)cc2)nc(N(C)CCN2CCCC2)c1C#N` [Example 570, N-(4-(((3,5-dicyano-4-ethyl-6-(methyl(2-(pyrrolidin-1-yl)ethyl)amino)pyridin-2-yl)thio)methyl)phenyl)-N-methylmethanesulfonamide], for which the “DNMT1 BioChemical (pIC50 category)” value at DNMT1 (setting [2]) is “D (Category D: ≥6.5)”. In assay [1], the EC50 was under 0.316 µM.
For `CCc1c(C#N)c(SC(C(N)=O)c2ccccc2)nc(N2CCOC(CN3CCCC3)C2)c1C#N` (centres unmarked) [Example 560, 2-((3,5-dicyano-4-ethyl-6-(2-(pyrrolidin-1-ylmethyl)morpholino)pyridin-2-yl)thio)-2-phenylacetamide], the “DNMT1 BioChemical (pIC50 category)” value at DNMT1 (setting [2]) was “D (Category D: ≥6.5)”. Moreover, in assay [1], the EC50 is under 0.316 µM.
